Key:
[1] = test system: NF-kB luciferase promoter; experiment: NF-κB INHIBITION TEST (NF-kB luciferase reporter, TNFα-stimulated H9c2 cells); assay type: cell-based, Rat; settings: TNFα 100 ng/ml, versus TNFα + Vehicle (0.1% DMSO)
Description: NFκB-INHIBITION TESTS were performed on various concentrations of 1-hydroxyl 3,5-bis(4′hydroxyl styryl)benzene and a vehicle control (DMSO). The 1-hydroxyl 3,5-bis(4′hydroxyl styryl)benzene was prepared as described in U.S. Pat. No. 7,745,670. The NF-κB INHIBITION TEST was conducted as follows. Rat cardiac myoblasts H9c2 cells were purchased from ATCC (Manassas, Va.). Cultures were maintained in Dulbecco's modified Eagle's medium (DMEM, Invitrogen Life Technologies, Carlsbad, Calif.) supplemented with 10% fetal bovine serum, 100 units/ml penicillin, and 50 ug/ml streptomycin (Invitrogen life technologies, Carlsbad, Calif.). 1×10^4 cells grown in 96-well plates were transiently transfected with 0.45 ug total DNA per well using Lipofectamine 2000 (Invitrogen life technologies, Carlsbad, Calif.). In all transfections, a construct with the thymidine kinase promoter and the Renilla luciferase reporter gene (pRL-TK, Promega, Madison Wis.) was included as an internal control in addition to the NF-kB luciferase promoter. One day after transfection, cells were treated with the indicated samples (in DMSO as vehicle) at indicated concentrations and stimulated with 100 ng/mL of Tumor Necrosis Factor-α (TNFα, Sigma-Aldrich, St Louis, Mo.) for approximately 24 hours before they were lysed for luciferase assays, using Dual-Luciferase Reporter System from Promega (Madison, Wis.), following manufacturer's protocol. Briefly, the firefly luciferase activity was measured first (representing NF-kB promoter activity), followed by the renilla luciferase (internal control), using luminometer LMAX, from Molecular Devices (Sunnyvale, Calif.). The ratio of these two luciferase activities (RLU) was used to evaluate the activity of each promoter: NF-κB Inhibition=[1−(RLUsample/RLUcontrol)]*100 where RLUsample and RLUcontrol are the normalized luciferase activity ratios of the sample and control, respectively. The results are shown in Table 1, in which NF-kB Gene Reporter Activation (Luminescence, L) is reported. Percent NF-kB Inhibition is also reported.

Collagen1A = experiment: Induction of Collagen1A gene expression in primary human dermal fibroblasts (quantitative PCR); assay type: cell-based; settings: for Collagen1A Normalized Fold-change in PCR (Mean): 0.1 ug/mL, 48 hr, normalized to GAPDH, from untreated
Description: (§1) Primary human dermal fibroblasts (Lifeline Cell Technologies, Frederick, Md.) were grown until confluence in DMEM media (Invitrogen/Life Technologies, Carlsbad, Calif.) with 10% FBS and 1% Penicillin-Streptomycin on 24 well tissue culture plates, followed by treatment with 1-hydroxyl 3,5-bis(4′hydroxyl styryl)benzene (0.1 ug/mL) with and without TNF-a for 48 hr. Post-treatment, cells were lysed using RLT buffer and total RNA was isolated using the RNeasy Mini Kit (Qiagen, Valencia, Calif.). Quantitative PCR was performed using the Gene Amp PCR System 9700 and 7500 Real Time PCR System cycler (Applied Biosystems)/Life Technologies, Carlsbad, Calif.). Elastin (Qiagen) and Collagenlal primers (custom sequence-sense: 5′-TCC-CCA-GCT-GTC-TTA-TGG-CT-3′ and anti-sense: 5′-CAG-GCA-CGG-AAA-TTC-CTC-C-3′) were used. The housekeeping gene GAPDH was used for normalization (custom primer sequence: F 5′-ATC-TCT-GCC-CCC-TCT-GCT-G-3′ and R 5′-ATG-GTT-CAC-ACC-CAT-GAC-GA-3′; Invitrogen/Life Technologies, Carlsbad, Calif.). Fold-changes in PCR (normalized to GAPDH) were calculated from untreated.

IL-8 cytokine release = experiment: Anti-inflammatory activity: IL-8 cytokine release from epidermal equivalents after solar UV exposure; assay type: cell-based, human; settings: for Change over vehicle alone (Normalized to 100) / % inhibition over UV treatment: IL-8 release; for Change over vehicle alone (Normalized to 100): 2 h before UV 70 kJ/m^2, 24 hours; for % inhibition over UV treatment: UV-exposed epidermal equivalents; for UV-induced inflammation (result in words): summary of Table 2
Description: The topical anti-inflammatory activities of 1-hydroxyl 3,5-bis(4′hydroxyl styryl)benzene and its piperazine salt were evaluated as follows.
Epidermal equivalents (EPI 200 HCF), multilayer and differentiated epidermis consisting of normal human epidermal keratinocytes, were purchased from MatTek (Ashland, Mass.). Upon receipt, epidermal equivalents were incubated for 24 hours at 37° C. in maintenance medium without hydrocortisone. Equivalents were topically treated (2 mg/cm^2) with 1-hydroxyl 3,5-bis(4′hydroxyl styryl)benzene thereof in a 70:30 Ethanol-Propylene glycol vehicle two hours before exposure to solar ultraviolet light (1000W-Oriel solar simulator equipped with a 1-mm Schott WG 320 filter; UV dose applied: 70 kJ/m^2 as measured at 360 nm). The equivalents were incubated for 24 hours at 37° C. with maintenance medium then supernatants were analyzed for IL-8 cytokine release using commercially available kits (Millipore Corp., Billerica, Mass.).

Elastin = experiment: Induction of Elastin gene expression in primary human dermal fibroblasts (quantitative PCR); assay type: cell-based; settings: for Elastin Normalized Fold-change in PCR (Mean): 0.1 ug/mL, 48 hr, normalized to GAPDH, from untreated
Description: as §1

MMP-9 = experiment: Inhibition of TNF-α-induced MMP-9 levels in epidermal equivalents; assay type: cell-based, human; settings: for Mean of MMP-9 Release: 2 hours before TNF-α (100 ng/mL), 48 hours
Description: The ability of 1-hydroxyl 3,5-bis(4′hydroxyl styryl)benzene to inhibit TNF-a induced MMP-9 levels was tested at different concentrations as follows. The formation of TNF-α induced MMP-9 is involved in the undesirable breakdown of extracellular matrix in human skin.
Epidermal equivalents (EPI 200 HCF) were purchased from MatTek (Ashland, Mass.). Upon receipt, the epidermal equivalents were incubated for 24 hours at 37° C. in maintenance medium without hydrocortisone. The equivalents were topically treated (2 mg/cm^2) with 1-hydroxyl 3,5-bis(4′hydroxyl styryl)benzene extracts in a 70% ethanol/30% propylene glycol vehicle 2 hours before treatment with TNF-α (100 ng/mL). the equivalents were incubated for 48 hours at 37° C. with maintenance medium then supernatants were analyzed for MMP-9 using commercially available kits (R&D Systems, Minneapolis, Minn.).

[2] = 0.5% topical (2 mg/cm^2) in 70:30 Ethanol-Propylene glycol
[3] = 1% topical (2 mg/cm^2) in 70:30 Ethanol-Propylene glycol

Oc1ccc(/C=C/c2cc(O)cc(/C=C/c3ccc(O)cc3)c2)cc1 [1-Hydroxyl 3,5-bis(4′hydroxylstyryl)benzene]
Percent NF-kB Inhibition ([1]; 0.2 ug/ml): 0.5%
Percent NF-kB Inhibition ([1]; 0.5 ug/ml): 22.1%
Percent NF-kB Inhibition ([1]; 1 ug/ml): 51.7%
Percent NF-kB Inhibition ([1]; 2 ug/ml): 71.0%
Percent NF-kB Inhibition ([1]; 4 ug/ml): 96.1%
Collagen1A Normalized Fold-change in PCR (Mean) (Collagen1A; with TNF-α (10 ng/mL)): 1.36
Collagen1A Normalized Fold-change in PCR (Mean) (Collagen1A; without TNF-α): 2.96
expression of genes associated with collagen production (result in words) (Collagen1A; summary of Tables 3A and 3B): increased the expression of genes associated with collagen and elastin production
Change over vehicle alone (Normalized to 100) (IL-8 cytokine release; [2]): 82 ± 21
% inhibition over UV treatment (IL-8 cytokine release; 0.5% topical): 39%
Change over vehicle alone (Normalized to 100) (IL-8 cytokine release; [3]): 80 ± 26
% inhibition over UV treatment (IL-8 cytokine release; 1% topical): 40%
UV-induced inflammation (result in words) (IL-8 cytokine release): strong reduction in UV-induced inflammation
Elastin Normalized Fold-change in PCR (Mean) (Elastin; with TNF-α (10 ng/mL)): 1.12
Elastin Normalized Fold-change in PCR (Mean) (Elastin; without TNF-α): 6.23
expression of genes associated with elastin production (result in words) (Elastin; summary of Tables 3A and 3B): increased the expression of genes associated with collagen and elastin production
Mean of MMP-9 Release (MMP-9; 0.25% w/v topical (2 mg/cm^2)): 1392 ± 627 ng/mL
Mean of MMP-9 Release (MMP-9; 0.5% w/v topical (2 mg/cm^2)): 1012 ± 249 ng/mL
inhibition at 0.25 % strength (MMP-9; Homo sapiens, 0.25% w/v topical, TNF-α 100 ng/mL, read-out: Percent Inhibition of MMP-9 Production (over TNF-α alone)): 60.9%
inhibition at 0.5 % strength (MMP-9; Homo sapiens, 0.5% w/v topical, TNF-α 100 ng/mL, read-out: Percent Inhibition of MMP-9 Production (over TNF-α alone)): 71.6%
formation of TNF-α induced MMP-9 (result in words) (MMP-9; summary of Table 4): inhibited the formation of TNF-α induced MMP-9

Oc1ccc(C=Cc2cc(O)cc(C=Cc3ccc(O)cc3)c2)cc1 [1-hydroxyl 3,5-bis(4′hydroxylstyryl)benzene]
Change over vehicle alone (Normalized to 100) (IL-8 cytokine release; [2]): 85 ± 14
% inhibition over UV treatment (IL-8 cytokine release; 0.5% topical): 37%
Change over vehicle alone (Normalized to 100) (IL-8 cytokine release; [3]): 81 ± 31
% inhibition over UV treatment (IL-8 cytokine release; 1% topical): 40%
UV-induced inflammation (result in words) (IL-8 cytokine release): strong reduction in UV-induced inflammation
